EP0406111A1, “Substituted arylamines and heteroarylamines, process for their preparation and pharmaceutical composition containing them” (SOCIETE DE CONSEILS DE […] D'APPLICATIONS SCIENTIFIQUES …, priority 1989, dated 1991)
Where two headings read alike, the source gives them in different places.

Assays:
[1] = target: T1, complexe de recapture de la dopamine (Rattus norvegicus, UniProt P23977); experiment: biochemical; format: binding; conditions: for IC50: read-out: [3H] BTCP IC50
T1 construct: expériences de compétition sur les membranes de striatum préparées comme ci-dessus; from tissue; host or cells: rat striatal membranes
Procedure: Exemple 35 : Affinité des composés pour les sites de liaison de la (³H)BTCP sur les membranes striatales de cerveaux de rats.
Les striata de cerveaux de rats rapidement disséqués dans la glace sont homogénéisés avec un ultra turax pendant 30 s (position 6) dans 50 volumes d'une solution de sucrose 0,32 M tamponnée par du Tris-HCl 10 mM à pH = 7,4. L'homogénat est centrifugé à 4°C à 1000g pendant 10 mln, puis le surnageant obtenu est centrifugé à 40000 g à 4°C pendant 30 min et les culots obtenus sont repris dans 1 ml de tampon par striatum.
L'affinité des composés pour le complexe de recapture de la dopamine est déterminée par des expériences de compétition sur les membranes de striatum préparées comme ci-dessus. Le ligand radioactif utilisé est la (³H)BTCP (Service des Molécules Marquées du CEA, Saclay France) à 55Ci/mmol.
Après 90 min à 4°C, 3 aliquots de 250 µl sont filtrés sous vide sur des filtres de fibre de verre GF/B (Whatman). La liaison non spécifique est obtenue dans des expériences parallè-les réalisées en présence de 10 µM de BTCP non marquée. Elle est soustraite de la liaison totale pour obtenir la liaison spécifique.

[2] = Toxicity test in mice, 100 mg/kg intraperitoneal; set-up: species or system souris; conditions: mouse, in vivo, ip, 100 mg/kg i.p., read-out: Toxicité à 100 mg/kg i.p. % mortalité à 48 h
Procedure: Le tableau 6 annexé illustre les résultats d'essais de toxicité effectués chez la souris sur les amines substituées de l'invention à une dose de 100mg/kg par voie intrapéritonéale.

[3] = target: T2, capture de (³H)dopamine par les synaptosomes striataux de rat (Rattus norvegicus, UniProt P23977); experiment: biochemical
T2 construct: Les culots résultants P2 contenant les synaptosomes bruts sont ensuite utilisés sans purification supplémentaire; from tissue; host or cells: Wistar rat striatum, crude synaptosomes (P2 pellet)
Procedure: Ce test est pratiqué selon la méthode utilisée par Vignon et Lazdunski en opérant de la façon suivante. Des rats Wistar pesant 200-250g sont tués par dislocation cervicale. Leurs cerveaux sont rapidement prélevés et les striata sont dissé-qués sur la glace. Les striata sont ensuite homogéné-isés (10 allers-retours) avec un homogénéisant Potter dans 50 volumes de tampon Tris HCl 10 mM à pH 7,4 contenant 0,32 M de sucrose. L'homogénat est ensuite centrifugé à 1000g pendant 10min à 4°C, puis le surnageant obtenu est recentrifugé à 10000g pendant 20min à 4°C. Les culots résultants P2 contenant les synaptosomes bruts sont ensuite utilisés sans purification supplémentaire.
On ajoute alors de la dopamine tritiée ((³H)DA, Amersham) à une concentration finale de 5 nM pendant 5 min à 30°C, et on interrompt sa capture par filtration de 150 µl du milieu d'incubation sur des filtres en fibres de verre GF/B (Whatman). La radioactivité retenue par les filtres est mesurée dans un compteur à scintillation liquide (LKB)avec 3 ml d'ACS (Amersham) comme scintillant. La capture non spécifique est mesurée à 4°C dans des incubations parallèles : elle est ensuite sous-traite de la capture totale mesurée à 30°C.
Les composés à tester sont solubilisés au départ dans de l'eau à une concentration de 1mM et les autres concentrations sont obtenues par des dilutions successives de cette solution mère dans l'eau.

souris Swiss = experiment: Locomotor activity of mice in the Boissier-Simon actimeter (Example 38); format: in vivo; conditions: for Activité locomotrice Variation (%) par rapport aux témoins (100%) pour la dose 10 mg/kg,i.p.: 30 min after administration, beams crossed from 20th to 35th minute; for Activité locomotrice, effect compared with BTCP: 10 mg/kg i.p.
Procedure: Exemple 38 : Mesure de l'activité locomotrice.
L'activité locomotrice de souris Swiss (mâles CD1, 25-30 g, Charles River, St Aubin lès Elbeuf, France) est mesurée dans l'actimètre Boissier-Simon (Apelex, Bagneux, France).
30 minutes après l'administration des composés à tester (10 mg/kg, i.p.), les souris sont introduites dans des cages individuelles en Plexiglass (L = 26 cm, l = 20 cm, h = 10 cm), équipées de deux cellules photoélectriques situées à 1 cm au-dessus du plancher. Chaque cellule est reliée à un compteur électromécanique. "L'activité locomotrice" correspond au nombre de rayons traversés, de la 20ème à la 35ème minute après introduction dans les cages d'actimétrie.

récepteur de la PCP = experiment: Competition binding at the (3H)TCP sites on rat brain homogenates (Example 36); conditions: 1 nM (3H)TCP, 30 min at 25°C
Source text: Exemple 36 : Affinité des composés pour les sites de liaison de la (³H)TCP sur les homogénats de cerveaux de rats.
Dans cet essai on mesure les affinités des composés pour le récepteur de la PCP par des expériences de compétition sur des homogénats de cerveaux de rats. Le ligand radioactif utilisé est la (³H)TCP à une activité spécifique de 62 Ci/mmol (Service des Molécules Marquées, CEA Saclay France).
Les cerveaux de rats (sans le cervelet et le tronc cérébral) sont homogénéisés à l'ultra turax dans 20 volumes de tampon Hepes-Tris 50 mM, pH 7,7. Après centrifugation pendant 30 min à 15000 g le culot est repris dans le même volume de tampon et recentrifugé dans les mêmes conditions. Le culot final est repris dans du tampon Hepes-Tris 50 mM, pH 7,7 de façon à obtenir une concentration en protéine de 6 à 8 mg/ml.
Les expériences de compétition sont réalisées en incubant pendant 30 min les membranes (concentration finale en protéine : 0,6 à 0,8 mg/ml) en milieu tampon 5 mM Hepes-Tris, pH 7,7 à 25°C, en présence d'une concentration fixe de ligand tritié (1 nM)et de concentrations croissantes de composés à tester. Trois échantillons de 600 µL sont ensuite filtrés sur filtres de fibres de verre GF/B prétraités par du PEI (polyéthylénimine) à 0,1%. Les filtres sont rincés avec 3x5ml de tampon Tris-HCl 10 mM, NaCl 100 mM et la radioactivité retenue est mesurée dans un compteur à scintillation liquide. La liaison non spécifique est obtenue en présence de TCP […].

[4] = rat striatal membranes, 0,2 nM (3H)BTCP, 90 min at 4°C
[5] = ratio of IC50 at the PCP receptor to IC50 at the dopamine reuptake complex
[6] = rat striatal synaptosomes, 5 nM (3H)DA, 5 min at 30°C, read-out: [3H] DA IC50

T2 sequence (P23977 whole entry): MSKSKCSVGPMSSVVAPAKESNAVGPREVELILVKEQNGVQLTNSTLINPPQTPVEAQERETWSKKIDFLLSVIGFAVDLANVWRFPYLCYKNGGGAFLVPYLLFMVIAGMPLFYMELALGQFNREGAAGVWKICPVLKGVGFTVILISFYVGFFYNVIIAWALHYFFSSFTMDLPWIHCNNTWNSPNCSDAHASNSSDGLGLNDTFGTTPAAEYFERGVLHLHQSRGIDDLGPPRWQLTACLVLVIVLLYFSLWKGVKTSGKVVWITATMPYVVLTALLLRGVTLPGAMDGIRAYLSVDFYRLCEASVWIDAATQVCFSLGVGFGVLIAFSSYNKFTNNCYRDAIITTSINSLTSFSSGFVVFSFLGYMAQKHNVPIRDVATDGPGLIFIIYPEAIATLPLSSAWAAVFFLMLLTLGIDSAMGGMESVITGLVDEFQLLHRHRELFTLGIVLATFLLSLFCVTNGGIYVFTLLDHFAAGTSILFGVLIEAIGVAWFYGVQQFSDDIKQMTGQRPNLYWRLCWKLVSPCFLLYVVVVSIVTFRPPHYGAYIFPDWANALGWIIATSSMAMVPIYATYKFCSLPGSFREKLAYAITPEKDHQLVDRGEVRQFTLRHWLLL
T1 sequence (P23977 whole entry, one chain of several): as the sequence (P23977 whole entry) above

| SMILES | Sélectivité IC50[^3H]TCP / IC50[^3H]BTCP ([1]; rat) | IC50 [1] | mortality at 48 h [2] | IC50 [3] | Activité locomotrice Variation (%) par rapport aux témoins (100%) pour la dose 10 mg/kg,i.p. (souris Swiss) | IC50 (récepteur de la PCP) | IC50 [1, 4] | Sélectivité IC50[^3H]TCP / IC50[^3H]BTCP [1, 5] | IC50 [3, 6] | Activité locomotrice, effect compared with BTCP (souris Swiss) | Sélectivité pour le complexe de recapture de la dopamine comparé au récepteur de la PCP, result in words [1] |
| --- | --- | --- | --- | --- | --- | --- | --- | --- | --- | --- | --- |
| c1ccc2sc(C3(N4CCCCC4)CCCCC3)cc2c1 [BTCP, (benzo(b)thiophényl-2)-1 (pipéridino -1) cyclohexane, reference compound] | 2380 | 8.4 nM | 0% | 13.9 nM | +122±12% | 20000 nM | – | – | – | – | – |
| OC1CCN(C2(c3cc4ccccc4s3)CCCCC2)CC1 [composé 26, (benzo(b)thiophényl-2)-1( (ol-4-pipéridino)-1)-1 cyclohexane] | – | – | – | – | +252±45% | 31900 nM | 15.9 nM | 2006 | – | – | – |
| CC1CCCN(C2(c3cc4ccccc4s3)CCCCC2)C1 (stereo not drawn) [composé n^o 2, (benzo(b)thiophényl-2)-1 ((méthyl-3 pipéridino)-1)-1 cyclohexane] | – | – | 10% | – | +160±25% | 52000 nM | 13.3 nM | 3910 | 9.3 nM | effet supérieur à celui du BTCP | – |
| c1ccc2oc(C3(N4CCCCC4)CCCCC3)cc2c1 [composé n^o 4, (benzo(b)furannyl-2)-1 (pipéridino-1)-1 cyclohexane] | – | – | 10% | – | +169±19% | 40000 nM | 19.1 nM | 2094 | 33.8 nM | effet supérieur à celui du BTCP | – |
| CC1CC(C)CN(C2(c3cc4ccccc4s3)CCCCC2)C1 (stereo not drawn) [composé n^o 6, (benzo(b)thiophényl-2)-1 ((diméthyl-3,5 pipéridino)-1)-1 cyclohexane] | – | – | 10% | – | +84±12% | > 100000 nM | 12.7 nM | >>7874 | 14.9 nM | – | – |
| BrCC1CCCN(C2(c3cc4ccccc4s3)CCCCC2)C1 (stereo not drawn) [composé n^o 10, (benzo(b)thiophényl-2)-1 ((bromométhyl-3 pipéridino)-1)-1 cyclohexane] | – | – | 0% | – | +30±19% | > 100000 nM | 34.5 nM | >>2898 | 57.1 nM | – | – |
| C[C@H]1CC[C@](c2cc3ccccc3s2)(N2CCCCC2)CC1 [composé n^o 20, (benzo(b)thiophényl-2)-1-t-méthyl-4-r-(pipéridino-1)-1 cyclohexane] | – | – | 0% | – | +40±22% | 112000 nM | 20.7 nM | 5410 | 21.4 nM | – | – |
| C[C@H]1CC[C@@](c2cc3ccccc3s2)(N2CCCCC2)CC1 [composé n^o 21, (benzo(b)thiophényl-2)-1 c-méthyl-4-r-(pipéridino-1)-1 cyclohexane] | – | – | 0% | – | +175±27% | > 100000 nM | 6.9 nM | >>14493 | 9.4 nM | effet supérieur à celui du BTCP | très bons résultats |
| CCCN(CCC)C1(c2cc3ccccc3s2)CCCCC1 [composé no 3, (benzo(b)thiophényl-2)-1 (dipropylamino-1)-1 cyclohexane] | – | – | 0% | – | +53±23% | 424000 nM | 7.2 nM | 58889 | 12.9 nM | – | très bons résultats |
